Assay [1] relates to C57BL/6J mice maintained on high fat diet. Kind of assay: Weight gain of mice maintained on high fat diet, compound mixed with diet. It counts as in vivo. The note with it: 50 mg/kg bw mixed with high fat diet. The method, then:
Male C57BL/6J mice (8 weeks old) were obtained and acclimatized for 1 week prior to experiments. Mice were maintained on a 12-hour light/dark cycle at 22+/−3° C. and a relative humidity of 55% and given ad libitum access to food and water. The age-matched C57BL/6J mice were maintained on a standard laboratory chow diet or high fat diet (60 kcal % fat) with or without compound of Formula I (50 mg/kg body weight) and water. Body weight and food intake was measured twice every week.
Trend of weight gaining after 16 weeks of C57BL6/J mice maintained on normal chow diet, high fat diet and high fat diet mixed with compound of Formula I was plotted (FIG. 9) (panel i); n=4 in each group:one-way ANOVA with Dunnett's multiple comparison; * P<0.05, ** P<0.01, *** P<0.001, ns: not significant. Representative images of dissected bodies showing fat accumulation (panel ii) and epididymal fat pads (panel iii) of the mice from three groups. Representative images of morphology of adipose tissue (iv) and liver (v) from the mice of the three groups, as studied by hematoxylin and eosin staining.

The test system of assay [2] is histone acetylation and butyrylation in 3T3L1 cells. Kind of assay: Immunoblotting of histone modification status in 3T3L1. It counts as cell-based. The note with it: 3T3L1 induced to undergo adipogenesis. The method, then:
Histones were acid extracted from both undifferentiated and differentiated 3T3L1 for comparison of acetylation and butyrylation levels. For the acid extraction, 3T3L1 cells were washed with ice-cold PBS (supplemented with 5 mm NaBu) and then resuspended in Triton extraction buffer (PBS containing 0.5% Triton X-100 (v/v) and 2 mM PMSF). The cells were allowed to lyse on ice for 10 minutes, spun down, washed with PBS and the process was repeated another time. Then the proteins were acid extracted with 0.2 N HCl for two hours on ice. The debris was spun down and then histones were precipitated by incubating the supernatant with 33% Trichloroacetic acid at 4° C. for 30 minutes. The histones were then pelleted down and then given two washes with acetone. The pellet was allowed to air-dry for 10 minutes and then resuspended with 50 mm Tris-Cl, pH 7.4.
The histones were then run in 15% SDS-PAGE, transferred onto PVDF membrane, blocked with 5% skimmed milk solution to prevent non-specific antibody binding, and finally probed with antibodies against acetylation and butyrylation marks.
Acid extraction of histones was performed from 3T3L1 cells that had been induced to undergo adipogenesis in the absence of any inhibitor (No Inhibitor), in presence of DMSO (solvent control) and in presence of compound of Formula I. The extraction protocol was the same as that described in Example 7.
Histone acetylation levels in 3T3L1 cells that were treated with compound of Formula I were compared with that in DMSO treated and untreated conditions by immunoblotting with antibodies against acetylated histones H3K18, H3K9 and H4K12 (FIG. 7). Histones H3 and H4 were used as loading controls (panel i). Under similar conditions histone butyrylation levels were compared by immunoblotting using antibodies against butyrylated histone H3K23, H4K5 and pan-butyryl lysine (panel ii).

Assay [3] concerns genetically obese db/db mice. Put plainly: Body weight gain of genetically obese db/db mice. Conditions: 50 mg/kg oral gavage. It counts as in vivo. The method, then:
Male db+/− and genetically obese db/db mice (8 weeks old) were obtained and acclimatized for 1 week prior to experiments. Mice were maintained on a 12-hour light/dark cycle at 22+/−3° C. and a relative humidity of 55% and given ad libitum access to food and water.
The age-matched db+/− and db/db mice were maintained on a standard laboratory pelleted diet and water. db/db mice were oral gavaged (50 mg/kg) with LTK14A in 0.5% carboxymethyl cellulose, equal volume of the vehicle was orally gavaged to control db/db mice for a total period of 30 days. db+/− animals were kept as untreated normal control group. The body weights and feed intake was recorded every week throughout the experimental period. The lean and fat mass of the mice were determined using Echo MRI in live mice on day 15th and day 30th.
Trend of weight gaining after 30 days of genetically obese leptin receptor homozygous mutant mice with compound of Formula I was plotted against that of mutant mice treated with vehicle control and also heterozygous mutant mice (FIG. 10)(panel i). Average weight gain, average fat mass and average lean mass of the mice from the three groups are represented in bar p graphs (panel ii, iii and iv respectively); n=4 in each group:one-way ANOVA with Dunnett's multiple comparison; * P<0.05, ** P<0.01, *** P<0.001, ns: not significant.

From patent publication US20240269106A1, “SMALL MOLECULE MODULATOR TARGETING A RARE HISTONE MODIFICATION REGULATING ADIPOGENESIS AND PHARMACEUTICAL FORMULATION THEREOF” (COUNCIL OF SCIENTIFIC AND INDUSTRIAL RESEARCH AN INDIAN …, priority 2021, published 2024) come the findings set out here.

With `COc1ccc(C(=O)C2=C3OC(C)(C)[C@@H](CC=C(C)C)C[C@@]34C[C@@H](CC=C(C)C)C(C)(C)[C@@](CC=C(C)C)(C2=O)C4=O)cc1OC` [Compound X], in assay [1], the adipose tissue hypertrophy result is “less hypertrophy” and the liver lipid accumulation entry is recorded as “less lipid accumulation”. In addition, the weight gain entry in assay [1] (16 weeks) is listed as “prevented weight gain”. For the same molecule, in assay [2], the “H3K23 Bu mark” value was “showed inhibition”; the “H4K5 Bu mark” value was “showed inhibition”; the “histone acetylation (H3K18, H3K9, H4K12)” value is reported as “not found to be affected”. Also, the “effect on fat mass compared to lean mass (Echo MRI)” value in assay [3] is “greater effect on fat mass”. Further, in assay [3] (30 days), the body weight result was “reduction in body weight”.
